Test systems include ACHN renal; HCC-2998 colon; NCI/ADR-RES ovarian; OVCAR-4 ovarian; OVCAR-5 ovarian; PC-3 prostate; SK-MEL-28 melanoma; SN12C renal.
What all share (test): NCI tumour cell line growth inhibition, 48 h

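How tested: cells in 96-well plates exposed to compound for 48 hours at five concentrations. GI50 = concentration required for 50% inhibition of growth. The concentration for full growth arrest is given as TGI.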 Bounds are passed on as bounds.

As for `COc1cc(/C=N/NC(=O)c2cnn3c2NC(c2ccccc2)C3)ccc1OC1CCCC1` (stereo not drawn), the GI50 in the experiment on ACHN renal is 0.666 µM; with HCC-2998 colon, 3.19 µM; in the experiment with NCI/ADR-RES ovarian it was 0.884 µM; in the experiment with OVCAR-4 ovarian, 2.01 µM; in the experiment with OVCAR-5 ovarian it was 1.84 µM; in the experiment on PC-3 prostate, 0.503 µM. Further, the GI50 in the experiment with SK-MEL-28 melanoma was 1.25 µM; with SN12C renal it was 1.85 µM. Further, the TGI in the experiment with ACHN renal came out at 6.04 µM; in the experiment with HCC-2998 colon, 19.7 µM; in the experiment with NCI/ADR-RES ovarian, 4.35 µM; in the experiment with OVCAR-4 ovarian, 7.75 µM; with OVCAR-5 ovarian, 10.9 µM; in the experiment with PC-3 prostate, 3.44 µM. In addition, the TGI with SK-MEL-28 melanoma was found to be 9.15 µM; with SN12C renal it was 9.61 µM.

Regarding `Cc1nc2c(Br)cc(Br)cc2c(=O)n1-c1ccccc1NC1OC(CO)C(O)C(O)C1O` (stereo not drawn), the TGI with ACHN renal, with HCC-2998 colon, in the experiment on NCI/ADR-RES ovarian, with OVCAR-4 ovarian, with OVCAR-5 ovarian and in the experiment on PC-3 prostate was over 100 µM in each case. The TGI in the experiment on SK-MEL-28 melanoma and in the experiment with SN12C renal was over 100 µM in each case.

For the molecule `Cn1c(I)c(C#C[Si](C)(C)C)c(=O)n(C(=O)c2ccccc2)c1=O`, the GI50 with ACHN renal is 2.9 µM; in the experiment on HCC-2998 colon, 6.78 µM; with NCI/ADR-RES ovarian, 22.4 µM; in the experiment with OVCAR-4 ovarian, 4.59 µM; in the experiment on OVCAR-5 ovarian it was 14.3 µM; in the experiment on PC-3 prostate, 3.52 µM. Also, the GI50 with SK-MEL-28 melanoma is 2.03 µM; in the experiment with SN12C renal, 6.26 µM. Also, the TGI in the experiment on ACHN renal worked out at 7.83 µM; in the experiment with HCC-2998 colon, 21.6 µM; in the experiment with NCI/ADR-RES ovarian, 48.8 µM; with OVCAR-4 ovarian it was 15.1 µM; in the experiment on OVCAR-5 ovarian, 28.5 µM; with PC-3 prostate it was 13.5 µM. Besides, the TGI worked out at 3.8 µM with SK-MEL-28 melanoma and 18.8 µM with SN12C renal.

For `NC(N)=N/N=C\c1ccc(OCc2ccccc2)cc1`, the GI50 is 2.64 µM in the experiment with ACHN renal; 1.67 µM with HCC-2998 colon; 1.82 µM with NCI/ADR-RES ovarian; 2.63 µM in the experiment with OVCAR-4 ovarian; 2.95 µM in the experiment with OVCAR-5 ovarian; 2.41 µM in the experiment with PC-3 prostate. For the same molecule, the figures for the GI50 with SK-MEL-28 melanoma and in the experiment with SN12C renal were 1.76 µM and 1.97 µM, respectively. The TGI with ACHN renal came out at 8.66 µM; in the experiment on HCC-2998 colon, 3.2 µM; in the experiment with NCI/ADR-RES ovarian, 4.93 µM; in the experiment with OVCAR-4 ovarian, 13.8 µM; in the experiment with OVCAR-5 ovarian it was 15.5 µM; in the experiment on PC-3 prostate, 10.6 µM. For the same molecule, the TGI in the experiment with SK-MEL-28 melanoma amounted to 3.68 µM; in the experiment on SN12C renal it was 5.35 µM.

`Cc1cccc(N2C(=O)/C(=C/C(Cl)=C/c3ccc([N+](=O)[O-])cc3)SC2=S)c1C`: the GI50 in the experiment with ACHN renal was 1.43 µM; in the experiment on HCC-2998 colon, 1.72 µM; in the experiment on NCI/ADR-RES ovarian it was 2.97 µM; in the experiment with OVCAR-4 ovarian, 1.46 µM; in the experiment on OVCAR-5 ovarian, 2.43 µM; with PC-3 prostate it was 1.39 µM. In addition, the values for the GI50 in the experiment with SK-MEL-28 melanoma and with SN12C renal were 2.37 µM and 2.03 µM, respectively. The TGI in the experiment on ACHN renal was 2.75 µM; in the experiment on HCC-2998 colon, 3.54 µM; in the experiment with NCI/ADR-RES ovarian, over 100 µM; in the experiment on OVCAR-4 ovarian, over 100 µM; in the experiment on OVCAR-5 ovarian, 5.67 µM; in the experiment with PC-3 prostate, 4.93 µM. Also, the TGI with SK-MEL-28 melanoma was 7 µM; with SN12C renal, 5.05 µM.

In the case of `NCCO/C=C/C(N)C(=O)O` (stereo not drawn), the TGI in the experiment on ACHN renal, in the experiment with HCC-2998 colon, in the experiment on NCI/ADR-RES ovarian, with OVCAR-4 ovarian, in the experiment on OVCAR-5 ovarian and in the experiment with PC-3 prostate was over 100 µM in each case. Besides, the TGI in the experiment with SK-MEL-28 melanoma and with SN12C renal was over 100 µM throughout.

`N#Cc1nc(CCc2nc(C#N)c(N)o2)oc1N`: the TGI in the experiment on ACHN renal, in the experiment with HCC-2998 colon, in the experiment on NCI/ADR-RES ovarian, in the experiment on OVCAR-4 ovarian, in the experiment on OVCAR-5 ovarian and in the experiment on PC-3 prostate was over 10 µM in each case. For the same molecule, the TGI in the experiment on SK-MEL-28 melanoma and in the experiment on SN12C renal was over 10 µM each time.

Consider `O=C(Nc1ccc(Cl)cc1C(F)(F)F)C(=O)Nn1c(=S)[nH]c2ccccc2c1=O`, for which the TGI in the experiment with ACHN renal, in the experiment on HCC-2998 colon, in the experiment with NCI/ADR-RES ovarian, in the experiment on OVCAR-4 ovarian, with OVCAR-5 ovarian and with PC-3 prostate was over 100 µM in each case. The TGI in the experiment on SK-MEL-28 melanoma and in the experiment on SN12C renal was over 100 µM throughout.

`C=C(C)C1CC(=O)C(C)=C(O)C1` (stereo not drawn): the TGI in the experiment on ACHN renal, in the experiment on HCC-2998 colon, with NCI/ADR-RES ovarian, in the experiment with OVCAR-4 ovarian, with OVCAR-5 ovarian and with PC-3 prostate was over 100 µM in each case. Also, the TGI with SK-MEL-28 melanoma and with SN12C renal was over 100 µM in each case.

Turning to `COc1ccc2c(c1)C(=O)c1c-2c(OCCCN(C)C)nc2cc(Br)ccc12`, the GI50 in the experiment on ACHN renal is 1.29 µM; with HCC-2998 colon, 10.3 µM; in the experiment on NCI/ADR-RES ovarian, 2.84 µM; in the experiment on OVCAR-4 ovarian it was 1.96 µM; in the experiment on OVCAR-5 ovarian it was 1.71 µM; in the experiment on PC-3 prostate, 3.04 µM. The GI50 in the experiment with SK-MEL-28 melanoma was 1.87 µM; in the experiment with SN12C renal, 2.01 µM. Also, the TGI in the experiment on ACHN renal was 2.73 µM; in the experiment with HCC-2998 colon, 22.7 µM; in the experiment with NCI/ADR-RES ovarian, 16.5 µM; in the experiment with OVCAR-4 ovarian, 5.17 µM; with OVCAR-5 ovarian, 3.59 µM; in the experiment on PC-3 prostate, 7.78 µM. Moreover, the TGI with SK-MEL-28 melanoma stood at 3.74 µM; in the experiment on SN12C renal it was 4.51 µM.

On to `COC(=O)C(C(=O)C(=O)Nc1c(C)cccc1C(C)(C)C)c1nc2ccc(Cl)cc2[nH]c1=O` (stereo not drawn), for which the TGI in the experiment on ACHN renal, in the experiment on HCC-2998 colon, in the experiment on NCI/ADR-RES ovarian, in the experiment on OVCAR-4 ovarian, in the experiment on OVCAR-5 ovarian and with PC-3 prostate was over 100 µM throughout. Besides, the TGI with SK-MEL-28 melanoma and in the experiment on SN12C renal was over 100 µM each time.

`O=S(=O)(NC1=NCCN1C(=S)SN1CCn2c1nsc2=S)c1ccc(Cl)cc1`: the GI50 is 6.05 µM with ACHN renal; 11 µM with HCC-2998 colon; 23.1 µM in the experiment with NCI/ADR-RES ovarian; 9.6 µM with OVCAR-4 ovarian; 17.9 µM with OVCAR-5 ovarian; 7.54 µM with PC-3 prostate. The GI50 in the experiment on SK-MEL-28 melanoma was 4.85 µM; in the experiment on SN12C renal it was 8.56 µM. Also, the TGI turned out to be 18.6 µM with ACHN renal; 23.6 µM with HCC-2998 colon; 60.8 µM in the experiment with NCI/ADR-RES ovarian; 44.2 µM in the experiment on OVCAR-4 ovarian; 36.5 µM with OVCAR-5 ovarian; 22.1 µM with PC-3 prostate. The TGI worked out at 20.7 µM with SK-MEL-28 melanoma and 22.5 µM with SN12C renal.

As to `O=C1c2ccccc2-c2nc3ccncc3n21`, the TGI in the experiment on ACHN renal, in the experiment on HCC-2998 colon, with NCI/ADR-RES ovarian, in the experiment on OVCAR-4 ovarian, with OVCAR-5 ovarian and with PC-3 prostate was over 100 µM each time. Moreover, the TGI in the experiment on SK-MEL-28 melanoma and in the experiment on SN12C renal was over 100 µM in each case.

`CN(C)CCC(=O)Nc1ccc(-n2cc(-c3cccc(NC(=S)Nc4cccc(-c5cn(-c6ccc(NC(=O)CCN(C)C)cc6)nn5)c4)c3)nn2)cc1`: the GI50 in the experiment on ACHN renal is over 100 µM; with HCC-2998 colon it was over 100 µM; with NCI/ADR-RES ovarian, over 100 µM; with OVCAR-4 ovarian, 35.4 µM; in the experiment with OVCAR-5 ovarian, 20.6 µM; in the experiment with PC-3 prostate, 85.9 µM. In addition, the GI50 in the experiment with SK-MEL-28 melanoma is 24.5 µM; in the experiment with SN12C renal it was 61.5 µM. Besides, the TGI with ACHN renal is over 100 µM; in the experiment on HCC-2998 colon, over 100 µM; in the experiment with NCI/ADR-RES ovarian it was over 100 µM; with OVCAR-4 ovarian, over 100 µM; in the experiment on OVCAR-5 ovarian, 52.8 µM; with PC-3 prostate, over 100 µM. Further, the TGI in the experiment with SK-MEL-28 melanoma is 53.4 µM; in the experiment with SN12C renal, over 100 µM.

For `COc1c2ccoc2nc2c(OC)c(OCC(O)C(C)(C)O)ccc12` (stereo not drawn), the TGI in the experiment on ACHN renal, in the experiment on HCC-2998 colon, with NCI/ADR-RES ovarian, in the experiment on OVCAR-4 ovarian, in the experiment on OVCAR-5 ovarian and in the experiment with PC-3 prostate was over 100 µM each time. Also, the TGI with SK-MEL-28 melanoma and in the experiment with SN12C renal was over 100 µM each time.

As to `CC(C)(C)C[C@H]1N[C@@H](C(=O)NC2CCC(O)CC2)[C@H](c2cccc(Cl)c2F)[C@@]12C(=O)Nc1cc(Cl)ccc12` (stereo partly drawn), the GI50 was 0.375 µM with ACHN renal; 3.64 µM in the experiment with HCC-2998 colon; 14 µM with NCI/ADR-RES ovarian; 5.6 µM with OVCAR-4 ovarian; 3.88 µM in the experiment on OVCAR-5 ovarian; 3.65 µM in the experiment on PC-3 prostate. The results for the GI50 with SK-MEL-28 melanoma and in the experiment on SN12C renal were 3.28 µM and 6.26 µM, respectively. For the same molecule, the TGI was determined as 10.1 µM in the experiment on ACHN renal; 13.1 µM in the experiment on HCC-2998 colon; 33.9 µM in the experiment on NCI/ADR-RES ovarian; 18.7 µM with OVCAR-4 ovarian; 15.2 µM in the experiment on OVCAR-5 ovarian; 13.5 µM in the experiment with PC-3 prostate. Also, the TGI is 11.7 µM in the experiment with SK-MEL-28 melanoma and 21.2 µM in the experiment on SN12C renal.

In the case of `Cn1c(COC(=O)NCCc2ccccn2)nc2c(N3CCOCC3)nc(Cl)nc21`, the GI50 in the experiment on ACHN renal is 1.27 µM; in the experiment on HCC-2998 colon it was 1.76 µM; with NCI/ADR-RES ovarian it was 2.62 µM; in the experiment on OVCAR-4 ovarian, 1.62 µM; in the experiment with OVCAR-5 ovarian it was 1.73 µM; with PC-3 prostate it was 1.64 µM. The results for the GI50 in the experiment with SK-MEL-28 melanoma and in the experiment on SN12C renal were 1.7 µM and 1.37 µM, respectively. Also, the TGI with ACHN renal is 2.57 µM; in the experiment on HCC-2998 colon, 3.57 µM; with NCI/ADR-RES ovarian it was 8.49 µM; with OVCAR-4 ovarian, 3.63 µM; in the experiment on OVCAR-5 ovarian, 3.68 µM; in the experiment with PC-3 prostate it was 3.56 µM. Moreover, the TGI came to 3.47 µM in the experiment with SK-MEL-28 melanoma and 3.48 µM with SN12C renal.

These data come from PubChem BioAssay (NCI).
